Assay results from patent publication US20140303144A1, “COMPOUNDS AND METHODS OF TREATING HYPERTENSION” (Medivation Technologies, Inc., priority 2011, published 2014).
Blank lines part the entries; values can stand above or below the compound they belong to.

Assays:
SH-SY5Y cells = assay: Cell viability assay (MTS reduction) against 4-Br-A23187 challenge; assay type: cell-based; details: compound 10 nM, 4-Br-A23187 (2 μM) for 24 h, Control = 100, Vehicle = 0
Method: SH-SY5Y cells cultured in DMEM/F12 media supplemented with 10% FBS were seeded in 96-well microplates at 150,000 cells/cm^2. After 24 h, cells were depleted from FBS and kept in culture for 24 h before the experiment. A stock solution was prepared by dissolving the calcium ionophore 4-Br-A23187 (Calbiochem Cat. N^o 100107) in DMSO at 25 mM. Cells were then treated with 4-Br-A23187 (2 μM), hydrogen peroxide (300 μM) or the mitochondrial toxin rotenone (25 μM) in the presence of vehicle or Compound of the Invention for 24 h. Cell death was determined by measurements of LDH release according to the Cytotoxicity Detection KitPlus (Roche, Mannheim, Germany). Cell viability was determined by measuring the capacity of cells to metabolize MTS tetrazolium (MTS) according to the Cytotoxicity Detection KitPlus (Roche, Mannheim, Germany) and MTS reduction was assessed by the CellTiter 96® AQueous One Solution Cell Proliferation assay (Promega Corporation, Madison, Wis., USA). Compounds were screened at 10 nM, using DMSO as vehicle. Assay results for the experiments with Br-A23187 were presented as the MTS reduction capacity (cell viability) of untreated cells (control), 4-Br-A23187-treated cells (vehicle), and co-incubation of Br-A23187 with Compounds of the Invention treated cells and using […] (FCCP) at 10 μM for 30 min as a control. This assay assesses the ability of the test compounds to protect against cell death that was mediated by mitochondrial dysfunction. In the assay, the calcium ionophore 4-Br-A23187 was used to challenge the cells, causing calcium levels to rise in mitochondria, which leads to depolarization and cell death. Test compounds were assessed for their ability to prevent cell death in response to challenge with 4-Br-A23187.

[1] = biological target: T1, human recombinant adrenergic α2B receptor (Homo sapiens, UniProt P18089); assay: Adrenergic α2B radioligand binding assay ([3H]Rauwolscine); details: for inhibition at 1 µM: 1 μM compound
T1 construct: expressed in transfected cells; host or cells: CHO-K1 cells
T1 sequence (P18089 1-450): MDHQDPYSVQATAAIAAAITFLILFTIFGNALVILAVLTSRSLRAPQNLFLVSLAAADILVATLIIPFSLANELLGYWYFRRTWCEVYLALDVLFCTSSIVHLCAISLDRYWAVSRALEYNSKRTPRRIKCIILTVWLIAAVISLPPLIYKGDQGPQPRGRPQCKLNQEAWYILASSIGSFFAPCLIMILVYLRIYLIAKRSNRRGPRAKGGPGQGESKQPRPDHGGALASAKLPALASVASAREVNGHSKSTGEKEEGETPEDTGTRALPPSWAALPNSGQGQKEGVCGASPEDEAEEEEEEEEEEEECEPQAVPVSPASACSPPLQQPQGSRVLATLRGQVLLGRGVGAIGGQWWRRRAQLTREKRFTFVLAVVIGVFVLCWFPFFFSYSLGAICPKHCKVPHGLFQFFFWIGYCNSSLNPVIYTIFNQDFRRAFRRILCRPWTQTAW
Method: To evaluate in radioligand binding assays the activity of compounds of the invention, human recombinant adrenergic α2B receptor expressed in Chinese hamster ovary (CHO) K1 cells (Uhlen, S. et al, Eur. J. Pharmacol. 343(1):93, 1998) in a modified Tris-HCl buffer (50 mM Tris-HCl, pH 7.4, 12.5 mM MgCl2, 1 mM EDTA, 0.2% BSA) was used. Compounds of the invention were incubated with 2.5 nM [3H]Rauwolscine for 60 min at 25° C. Non-specific binding was estimated in the presence of 10 μM Prazosin. Receptor proteins were filtered and washed, the filters were then counted to determine [3H]Rauwolscine specifically bound. Compounds were screened at 1 μM or lower, using 1% DMSO as vehicle. Compounds of the invention were tested in this biochemical assay and percent inhibition of specific binding was determined. Biochemical assay results are presented as the percent inhibition of specific binding in Tables B1A-B1D.

[2] = biological target: T2, human recombinant adrenergic α1D receptor (Homo sapiens, UniProt P25100); assay: Adrenergic α1D radioligand binding assay ([3H]Prazosin); details: read-out: Percentage inhibition of ligand binding, Adrenergic α1D; for inhibition at 1 µM: 1 μM compound
T2 construct: expressed in transfected cells; host or cells: HEK-293 cells
T2 sequence (P25100 1-572): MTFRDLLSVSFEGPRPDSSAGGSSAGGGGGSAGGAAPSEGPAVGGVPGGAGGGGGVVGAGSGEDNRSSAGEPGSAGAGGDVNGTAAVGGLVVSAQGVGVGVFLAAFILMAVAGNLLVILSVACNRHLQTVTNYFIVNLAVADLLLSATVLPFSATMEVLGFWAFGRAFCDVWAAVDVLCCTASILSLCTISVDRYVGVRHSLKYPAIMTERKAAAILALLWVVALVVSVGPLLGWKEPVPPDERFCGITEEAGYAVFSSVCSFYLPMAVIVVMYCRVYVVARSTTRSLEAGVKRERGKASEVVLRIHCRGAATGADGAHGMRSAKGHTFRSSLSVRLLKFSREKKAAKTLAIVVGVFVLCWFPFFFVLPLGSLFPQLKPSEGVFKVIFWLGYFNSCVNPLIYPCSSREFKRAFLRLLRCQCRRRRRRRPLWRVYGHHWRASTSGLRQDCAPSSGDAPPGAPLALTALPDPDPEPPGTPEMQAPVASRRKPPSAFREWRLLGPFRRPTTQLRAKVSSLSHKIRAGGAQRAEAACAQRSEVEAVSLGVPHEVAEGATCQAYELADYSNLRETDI
Method: To evaluate in radioligand binding assays the activity of compounds of the invention, human recombinant adrenergic α1D receptor expressed in human embryonic kidney (HEK-293) cells (Kenny, B. et al, Br. J. Pharmacol. 115(6):981, 1995) in a 50 mM Tris-HCl buffer, pH 7.4, was used. Compounds were incubated with 0.6 nM [3H]Prazosin for 60 min at 25° C. Non-specific binding was estimated in the presence of 10 μM phentolamine. Receptor proteins were filtered and washed, the filters were then counted to determine [3H]Prazosin specifically bound. Compounds were screened at 1 μM or lower, using 1% DMSO as vehicle. Biochemical assay results are presented as the percent inhibition of specific binding in Tables B1A-B1D.

[3] = biological target: T3, human recombinant adrenergic α2A receptor (Homo sapiens, UniProt P08913); assay: Adrenergic α2A radioligand binding assay ([3H]MK-912); details: for inhibition at 1 µM: 1 μM compound
T3 construct: expressed in transfected cells; host or cells: insect Sf9 cells
T3 sequence (P08913 1-465): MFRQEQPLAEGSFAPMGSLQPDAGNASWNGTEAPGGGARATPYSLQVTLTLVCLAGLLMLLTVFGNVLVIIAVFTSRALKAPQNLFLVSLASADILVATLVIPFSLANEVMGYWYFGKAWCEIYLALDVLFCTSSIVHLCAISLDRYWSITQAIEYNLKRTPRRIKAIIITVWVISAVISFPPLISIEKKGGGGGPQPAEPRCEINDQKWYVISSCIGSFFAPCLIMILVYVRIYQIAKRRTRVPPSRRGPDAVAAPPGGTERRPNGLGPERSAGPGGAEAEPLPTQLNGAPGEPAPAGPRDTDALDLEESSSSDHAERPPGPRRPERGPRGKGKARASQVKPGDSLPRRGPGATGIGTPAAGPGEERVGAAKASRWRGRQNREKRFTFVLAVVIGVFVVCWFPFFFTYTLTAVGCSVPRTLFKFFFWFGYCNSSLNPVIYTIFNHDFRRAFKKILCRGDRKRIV
Method: To evaluate in radioligand binding assays the activity of compounds of the invention, human recombinant adrenergic α2A receptor expressed in insect Sf9 cells (Uhlen, S. et al, J. Pharmacol. Exp. Ther. 271:1558, 1994) in a modified Tris-HCl buffer (50 mM Tris-HCl, pH 7.4, 12.5 mM MgCl2, 2 mM EDTA) was used. Compounds of invention were incubated with 1 nM [^3H]MK-912 for 60 min at 25° C. MK912 was (2S-trans)-1,3,4,5′,6,6′,7,12b-octahydro-1′,3′-dimethyl-spiro[2H-benzofuro[2,3-a]quinolizine-2,4′(1′H)-pyrimidin]-2′(3′H)-one hydrochloride Non-specific binding was estimated in the presence of 10 μM WB-4101 (2-(2,6-Dimethoxyphenoxyethyl)aminomethyl-1,4-benzodioxane hydrochloride). Receptor proteins were filtered and washed, the filters were then counted to determine [^3H]MK-912 specifically bound. Compounds were screened at 1 μM or lower, using 1% DMSO as vehicle. Compounds of the invention were tested in this biochemical assay and percent inhibition of specific binding was determined. Biochemical assay results are presented as the percent inhibition of specific binding in Tables B1A-B1D.

[4] = biological target: T4, rat adrenergic α1B receptor obtained from Wistar Rat liver (Rattus norvegicus, UniProt P15823); assay: Adrenergic α1B radioligand binding assay ([3H]Prazosin); details: 0.1 μM compound
T4 construct: rat adrenergic α1B receptor obtained from Wistar Rat liver; from tissue; host or cells: Wistar rat liver
T4 sequence (P15823 1-515): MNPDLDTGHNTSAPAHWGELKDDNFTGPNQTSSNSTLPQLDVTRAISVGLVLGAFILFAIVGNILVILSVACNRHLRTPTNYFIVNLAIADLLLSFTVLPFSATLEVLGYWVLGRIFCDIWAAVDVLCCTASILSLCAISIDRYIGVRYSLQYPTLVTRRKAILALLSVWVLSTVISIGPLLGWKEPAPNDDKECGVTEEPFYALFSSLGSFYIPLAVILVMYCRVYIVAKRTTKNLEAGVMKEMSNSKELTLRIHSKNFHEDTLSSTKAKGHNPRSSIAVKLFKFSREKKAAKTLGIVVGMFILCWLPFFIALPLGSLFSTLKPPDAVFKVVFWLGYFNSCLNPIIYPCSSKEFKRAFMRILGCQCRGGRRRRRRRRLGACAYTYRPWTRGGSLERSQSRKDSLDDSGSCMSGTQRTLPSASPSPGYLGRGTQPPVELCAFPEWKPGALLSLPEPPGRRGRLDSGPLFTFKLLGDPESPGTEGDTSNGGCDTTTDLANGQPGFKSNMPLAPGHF
Method: To evaluate in radioligand binding assays the activity of compounds of the invention, rat adrenergic α1B receptor obtained from Wistar Rat liver (Garcia-S'ainz, J. et al, Biochem. Biophys. Res. Commun. 186:760, 1992; Michel, A. et al, Br. J. Pharmacol. 98:883, 1989) in a modified Tris-HCl buffer (50 mM Tris-HCl buffer, pH 7.4, 0.5 mM EDTA) was used. Compounds of the invention were incubated with 0.25 nM [^3H]Prazosin for 60 min at 25° C. Non-specific binding was estimated in the presence of 10 μM phentolamine. Receptor proteins were filtered and washed, the filters were then counted to determine [^3H]Prazosin specifically bound. Compounds were screened at 1 μM or lower, using 1% DMSO as vehicle. Compounds of the invention were tested in this biochemical assay and percent inhibition of specific binding was determined. Biochemical assay results are presented as the percent inhibition of specific binding in Tables B1A-B1D.

[5] = 0.1 μM compound, read-out: Percentage inhibition of ligand binding, Adrenergic α2B
[6] = read-out: Percentage inhibition of ligand binding, Adrenergic α2B
[7] = read-out: Percentage inhibition of ligand binding, Adrenergic α2A

Compound: Cc1ccc2c(c1)c1c(n2C)C(C)(CCc2ccccc2)CN(C)C1 (stereo not shown) [C44]
Relative Cytoprotective capacity (SH-SY5Y cells): −0.6342

Compound: Cc1ccc(C2Cn3c4c(c5cccc2c53)CN(C)CC4)cn1 (stereo not shown) [B210]
inhibition at 0.1 µM [1, 5]: 14%

Compound: Cc1cc2c3c(c1)c1c(n3CC(C)(c3ccc(C)nc3)OC2C)CCN(C)C1 (stereo not shown) [B161]
inhibition at 0.1 µM ([2]; 0.1 μM compound): 1% | Percentage inhibition of ligand binding, Adrenergic α2B ([1]; 0.1 μM compound, 0.1 µM): 7% | Percentage inhibition of ligand binding, Adrenergic α1B ([4]; 0.1 µM): 2% | Percentage inhibition of ligand binding, Adrenergic α2A ([3]; 0.1 μM compound, 0.1 µM): 13%

Compound: Cc1cc(CC(O)c2ccncc2)c2[nH]c3c(c2c1)CN(C)CC3 (stereo not shown) [A43]
inhibition at 0.03 µM ([1]; 0.03 μM compound, read-out: Percentage inhibition of ligand binding, Adrenergic α2B): 26% | inhibition at 0.1 µM ([4]; read-out: Percentage inhibition of ligand binding, Adrenergic α1B): -1% | inhibition at 0.1 µM ([3]; 0.1 μM compound, read-out: Percentage inhibition of ligand binding, Adrenergic α2A): 7%

Compound: Cc1cc2c(-c3ccccc3)cn3c4c(c(c1)c23)CN(C)CC4 [B211]
inhibition at 0.1 µM [1, 5]: 82%

Next, values leading:

inhibition at 1 µM [2]: 28% | inhibition at 1 µM [1, 6]: 47% | inhibition at 1 µM [3, 7]: 15%
Compound: Cc1cc2c3c(c1)c1c(n3CC(c3ccc(C)nc3)C2)CCN(C)C1 (stereo not shown) [B1]

inhibition at 1 µM [2]: 24% | inhibition at 1 µM [1, 6]: 74% | inhibition at 1 µM [3, 7]: 89%
Compound: Cc1cc2c3c(c1)c1c(n3CC2c2ccc(F)cc2)CCN(C)C1 (stereo not shown) [B2]

inhibition at 1 µM [2]: 38% | inhibition at 1 µM [1, 6]: 68% | inhibition at 1 µM [3, 7]: 89%
Compound: Cc1cc2c3c(c1)c1c(n3CC(c3ccc(F)cc3)C2)CCN(C)C1 (stereo not shown) [B3]
